The values that follow come from patent publication US20110002993A1, “FILM COATED TABLETS CONTAINING DROSPIRENONE AS ACTIVE AGENT AND A METHOD FOR THE PREPARATION THEREOF” (RICHTER GEDEON NYRT., priority 2007, published 2011).

The nature of this data set: solubility of drospirenone in water. It is filed as physicochemical. An excerpt: For dissolution of such a large amount of active agent a large amount of pharmaceutically and environmentally acceptable solvent is needed. […] In the preparation process according to the invention the solvent is ethanol. Ethanol is the most advantageous solvent from the environmental and safety point of views.

Turning to `C[C@]12CCC(=O)C=C1[C@@H]1C[C@@H]1[C@H]1[C@@H]3[C@@H]4C[C@@H]4[C@@]4(CCC(=O)O4)[C@@]3(C)CC[C@@H]12` [drospirenone, 6β,7β;15β,16β-dimethylene-3-oxo-17α-pregn-4-en-21,17-carbolactone], the solubility in water result is recorded as “substantially insoluble in water”.
